Tests used:
[1] = test system: XBP1(u)-luciferase splicing reporter in HepG2 hepatoma cells; assay: HepG2 XBP1 reporter assay (XBP1(u)-Luc); format: cell-based; conditions: Homo sapiens, 6 hours after compound addition, Table 3, read-out: XBP1-luc HepG2 1 EC50
[2] = test system: β-catenin-TCF-mediated reporter transcription activity in Colo 205 cells; assay: Colo 205 reporter assay (TCF/LEF promoter-driven firefly luciferase); format: cell-based; conditions: Homo sapiens; Colo 205 TCF/LEF luciferase reporter, 5 hours after compound addition, 384 well; read-out: Colo205 IC50
Excerpt: The compounds of the invention described herein were screened using the assay procedure for β-catenin-TCF-mediated reporter transcription activity described below.
Reporter cell lines were generated by stably transfecting cells of cancer cell lines (e.g., colon cancer) with a plasmid reporter construct (From SABiosciences, a QIAGEN company) that includes TCF/LEF promoter driving expression of the firefly luciferase gene. TCF/LEF reporter constructs were made in which TCF/LEF promoter, a promoter with optimal number of TCF/LEF binding sites designed by SABiosciences, was linked upstream of the firefly luciferase gene. This construct could also include a puromycin resistance gene as a selectable marker. This construct could also be used to stably transfect Colo 205 cells, a colon cancer cell line having a mutated APC gene that causes a constitutively active β-catenin. A control cell line was generated using another plasmid construct containing the luciferase gene under the control of a CMV basal promoter which is not activated by β-catenin.
Colo 205 Cultured cells with a stably transfected reporter construct were plated at approximately 10,000 cells per well into 384 well multi-well plates for twenty four hours. The testing compounds were then added to the wells in 2-fold serial dilutions using a twenty micromolar top concentration. A series of control wells for each cell type received only compound solvent. Five hours after the addition of compound, reporter activity for luciferase was assayed, by addition of the SteadyGlo luminescence reagent (Promega). The reporter luminescence activity was measured using Pherastar plate reader (BMG Labtech). Readings were normalized to DMSO only treated cells, and normalized activities were then used in the IC50 calculations. The Colo 205 reporter assay data are summarized in Table 3: A<0.3 μM; 0.3 μM≤B<1.0 μM; 1.0 μM≤C<5.0 μM; D≥5.0 μM.

| SMILES | EC50 [1] | IC50 [2] |
| --- | --- | --- |
| Cc1cc(N2CCCOCC2c2ccc(C3COC3)cc2Cl)nc(N)n1 (racemic) [I-255, (+/−)-4-[3-[2-chloro-4-(oxetan-3-yl)phenyl]-1,4-oxazepan-4-yl]-6-methyl-pyrimidin-2-amine] | 600 to 2000 nM | < 300 nM |
| Cc1cc(N2CCCOCC2c2ccc(N3CCN(C)CC3)cc2Cl)nc(N)n1 (racemic) [I-225, (+/−)-4-[3-[2-chloro-4-(4-methylpiperazin-1-yl)phenyl]-1,4-oxazepan-4-yl]-6-methyl-pyrimidin-2-amine] | 600 to 2000 nM | 300 to 1000 nM |
| Cc1cc(N2CCCOCC2c2cc(NC(=O)C3CC3)ccc2Cl)nc(N)n1 (racemic) [I-241, (+/−)-N-[3-[4-(2-amino-6-methyl-pyrimidin-4-yl)-1,4-oxazepan-3-yl]-4-chloro-phenyl]cyclopropanecarboxamide] | < 600 nM | < 300 nM |
| Cc1cc(N2CCCCCC2c2ccccc2)nc(N)n1 (racemic) [I-4, (+/−)-4-methyl-6-(2-phenylazepan-1-yl)pyrimidin-2-amine] | 2000 to 5000 nM | 300 to 1000 nM |
| CCc1ccccc1C1CCCCCN1c1cc(C)nc(N)n1 (racemic) [I-45, (+/−)-4-(2-(2-ethylphenyl)azepan-1-yl)-6-methylpyrimidin-2-amine] | 600 to 2000 nM | 300 to 1000 nM |
| Cc1cc(N2CCCCCC2c2ccccc2Br)nc(N)n1 (centres unmarked) [I-69] | < 600 nM | 300 to 1000 nM |
| Cc1cc(N2CCCOCC2c2cc3c(cc2Cl)SCC(=O)N3)nc(N)n1 (racemic) [I-268, 6-[4-(2-amino-6-methyl-pyrimidin-4-yl)-1,4-oxazepan-3-yl]-7-chloro-4H-1,4-benzothiazin-3-one] | < 600 nM | < 300 nM |
| CC(=O)N1CC(Nc2ccc([C@H]3COCCCN3c3cc(C)nc(N)n3)c(Cl)c2)C1 [I-262, (S)-1-(3-((4-(4-(2-amino-6-methylpyrimidin-4-yl)-1,4-oxazepan-3-yl)-3-chlorophenyl)amino)azetidin-1-yl)ethan-1-one] | < 600 nM | < 300 nM |
| Cc1cc(N2CCCOCC2c2ccc(OCCC(C)(C)O)cc2Cl)nc(N)n1 (racemic) [I-230, (+/−)-4-[4-[4-(2-amino-6-methyl-pyrimidin-4-yl)-1,4-oxazepan-3-yl]-3-chloro-phenoxy]-2-methyl-butan-2-ol] | < 600 nM | 300 to 1000 nM |
| Cc1cc(N2CCCOCC2c2ccc(C3CCCO3)cc2Cl)nc(N)n1 (racemic) [I-235, (+/−)-4-(3-(2-chloro-4-(tetrahydrofuran-2-yl)phenyl)-1,4-oxazepan-4-yl)-6-methylpyrimidin-2-amine] | < 600 nM | < 300 nM |
| Cc1cc(N2CCCOCC2c2ccc(NC(=O)C3(C)COC3)cc2Cl)nc(N)n1 (racemic) [I-282, (+/−)-N-(4-(4-(2-amino-6-methylpyrimidin-4-yl)-1,4-oxazepan-3-yl)-3-chlorophenyl)-3-methyloxetane-3-carboxamide] | 600 to 2000 nM | 300 to 1000 nM |
| COc1ccc(C2CCCCCN2c2cc(C)nc(N)n2)cc1 (racemic) [I-23, (+/−)-4-[2-(4-methoxyphenyl)azepan-1-yl]-6-methyl-pyrimidin-2-amine] | ≥ 5000 nM | 300 to 1000 nM |
| Cc1cc(N2CCCOC[C@@H]2c2ccc(NC3CN(C)C3)cc2Cl)nc(N)n1 [I-246, 4-[(3S)-3-[2-chloro-4-[(1-methylazetidin-3-yl)amino]phenyl]-1,4-oxazepan-4-yl]-6-methyl-pyrimidin-2-amine] | < 600 nM | < 300 nM |
| Cc1cc(N2CCCOCC2c2cc(-c3ccn[nH]3)ccc2Cl)nc(N)n1 (racemic) [I-157, (+/−)-4-(3-(2-chloro-5-(1H-pyrazol-5-yl)phenyl)-1,4-oxazepan-4-yl)-6-methyl-pyrimidin-2-amine] | – | 300 to 1000 nM |
| COc1ccc(F)cc1C1COCCCN1c1cc(C)nc(N)n1 (centres unmarked) [I-284] | – | 300 to 1000 nM |
| Cc1cc(N2CCCOCC2c2ccccc2Cl)nc(N)n1 (racemic) [I-19, (+/−)-4-[3-(2-chlorophenyl)-1,4-oxazepan-4-yl]-6-methyl-pyrimidin-2-amine] | – | < 300 nM |
| Cc1cc(N2CCCOCC2c2cc(NC(=O)OC(C)(C)C)ccc2Cl)nc(N)n1 (centres unmarked) [I-158] | – | 300 to 1000 nM |
| Cc1cc(N2CCCOCC2c2ccccc2F)nc(N)n1 (racemic) [I-32, (+/−)-4-[3-(2-fluorophenyl)-1,4-oxazepan-4-yl]-6-methyl-pyrimidin-2-amine] | – | < 300 nM |
| COc1cc(S(C)(=O)=O)ccc1[C@H]1CCCCCN1c1cc(C)nc(N)n1 (single isomer, unassigned) [I-99, 4-[2-(2-methoxy-4-methylsulfonyl-phenyl)azepan-1-yl]-6-methyl-pyrimidin-2-amine] | – | < 300 nM |
| COCC(=O)Nc1ccc(Cl)c(C2COCCCN2c2cc(C)nc(N)n2)c1 (centres unmarked) [I-90] | – | 300 to 1000 nM |
| COc1ccc(Cl)cc1C1COCCCN1c1cc(C)nc(N)n1 (centres unmarked) [I-291] | – | 300 to 1000 nM |
| CNC(=O)c1ccc(OC)c([C@H]2CCCCCN2c2cc(C)nc(N)n2)c1 [I-148, (R)-3-(1-(2-amino-6-methylpyrimidin-4-yl)azepan-2-yl)-4-methoxy-N-methylbenzamide] | – | < 300 nM |

Reference: patent US11440907B1 (Merck Patent GmbH, priority 2018, dated 2022)
